Active and inactive are the calls of the source. No cut-off for these calls is given here.
Key:
[1] = molecular target: T1, Prostaglandin E2 receptor EP1 subtype (Rattus norvegicus, UniProt P70597); test: (§1) Antagonist activity at rat His-tagged EP1 receptor expressed in African green monkey COS1 cells assessed as reduction in PGE2-induced increase in intracellular calcium level preincubated for 60 secs followed by PGE2 addition measured for 60 secs by Fluo 4-AM dye-based fluorescence assay; assay type: functional, cell-based
T1 sequence (P70597 whole entry): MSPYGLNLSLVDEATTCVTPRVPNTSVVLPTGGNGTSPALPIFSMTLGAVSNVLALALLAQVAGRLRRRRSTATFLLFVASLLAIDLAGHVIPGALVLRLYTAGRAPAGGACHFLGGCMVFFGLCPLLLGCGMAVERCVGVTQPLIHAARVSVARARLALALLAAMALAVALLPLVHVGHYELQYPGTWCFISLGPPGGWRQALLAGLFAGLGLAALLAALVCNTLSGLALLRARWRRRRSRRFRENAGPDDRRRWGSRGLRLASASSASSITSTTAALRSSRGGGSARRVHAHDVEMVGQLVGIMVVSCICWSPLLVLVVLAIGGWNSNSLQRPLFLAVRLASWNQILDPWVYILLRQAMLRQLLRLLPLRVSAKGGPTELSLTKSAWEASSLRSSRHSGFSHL

[2] = molecular target: T2, Prostaglandin E2 receptor EP1 subtype (Rattus norvegicus) (UniProt P70597); test: as §1, with “level at 10 uM” for “level”, “assay relative to control” for “assay”; assay type: functional, cell-based
T2 sequence (whole entry): T1 sequence (P70597 whole entry)

[3] = Aqueous solubility of compound; assay type: physicochemical; conditions: buffer
[4] = AUC (0 to infinity) in rat at 1 mg/kg, iv; assay type: ADME, organism-based; parameters: dose 1 mg/kg, time infinity, route intravenous; conditions: in vivo
[5] = Total clearance in rat at 1 mg/kg, iv; assay type: ADME, organism-based; conditions: in vivo
Rattus norvegicus = test: Suppression of 17-PTP-induced bladder contraction in Wistar rat assessed as change in intravesical pressure at 1 mg/kg, iv pretreated for 5 mins followed by 17-PTP administration for 9 times with 30 mins time interval up to 245 mins post dose; assay type: functional, organism-based
[6] = Initial plasma concentration in rat at 1 mg/kg, iv; assay type: ADME, organism-based
[7] = Volume of distribution at steady state in rat at 1 mg/kg, iv; assay type: ADME, organism-based; conditions: in vivo, read-out: Vdss

SMILES	IC50 [1]	other results
COc1ccccc1-c1nn2cc(Cl)ccc2c1Cc1cccc(C(=O)O)n1		inhibition [2]: 29%
O=C(O)c1cccc(Cc2c(C3CC3)nn3cc(Cl)ccc23)n1	1500 nM	
O=C(O)c1cccc(Cc2c(-c3cccc(Cl)c3)nn3cc(Cl)ccc23)n1	480 nM	
O=C(O)c1cccc(Cc2c(N3CCOCC3)nn3cc(Cl)ccc23)n1	740 nM	
O=C(O)c1cccc(Cc2c(C3CCCCC3)nn3cc(Cl)ccc23)n1	1200 nM	
CC(C)Cc1nn2cc(Cl)ccc2c1Cc1cccc(C(=O)O)n1	200 nM	
Cc1cc(C(=O)O)nn1Cc1cc(Cl)cc2cc(-c3ccccc3)nn12		solubility [3]: > 75 µM
O=C(O)c1cccc(Cc2c(-c3ccccc3Cl)nn3cc(Cl)ccc23)n1	640 nM	
O=C(O)c1cccc(Cc2c(-c3ccccc3)nn3cc(Cl)ccc23)n1		AUC(0-inf) [4]: 1590 ng·h/mL; clearance [5]: 10.7 mL/min/kg; Activity (Rattus norvegicus): Active; C0 [6]: 2750 ng/mL; Vd [7]: 0.489 L/kg
O=C(O)c1cccc(Cc2c(-c3ccc(Cl)cc3)nn3cc(Cl)ccc23)n1	1100 nM	
O=C(O)c1cccc(Cc2c(-c3ccsc3)nn3cc(Cl)ccc23)n1	110 nM	
O=C(O)c1cccc(Cc2c(-c3cccs3)nn3cc(Cl)ccc23)n1	1100 nM	
COc1ccc2c(Cc3cccc(C(=O)O)n3)c(-c3ccccc3)nn2c1		AUC(0-inf) [4]: 2780 ng·h/mL; clearance [5]: 6.12 mL/min/kg; Activity (Rattus norvegicus): Active; C0 [6]: 2660 ng/mL; Vd [7]: 0.45 L/kg; solubility [3]: > 75 µM
O=C(O)c1cccc(Cc2c(N3CCSCC3)nn3cc(Cl)ccc23)n1	260 nM	
O=C(O)c1cccc(Cc2c(-c3ccco3)nn3cc(Cl)ccc23)n1	1200 nM	
O=C(O)c1cccc(Cc2c(N3CCCC3)nn3cc(Cl)ccc23)n1	1800 nM	
O=C(O)c1cccc(Cc2c(N3CCCCCC3)nn3cc(Cl)ccc23)n1	1400 nM	
O=C(O)c1cccc(Cc2c(-c3ccoc3)nn3cc(Cl)ccc23)n1	130 nM	
COc1ccc2c(Cc3cncc(C(=O)O)n3)c(-c3ccccc3)nn2c1	4500 nM	
COc1ccc(-c2nn3cc(Cl)ccc3c2Cc2cccc(C(=O)O)n2)cc1	5400 nM	
COc1cccc(-c2nn3cc(Cl)ccc3c2Cc2cccc(C(=O)O)n2)c1	800 nM	
COc1cccc2c(Cc3cccc(C(=O)O)n3)c(-c3ccccc3)nn12		inhibition [2]: 33%

The next lines start with results.

IC50 [1]	SMILES	other results
190 nM	O=C(O)c1cccc(Cc2c(-c3ccccc3)nn3cc(C4CC4)ccc23)n1	
2300 nM	O=C(O)c1cccc(Cc2c(-c3ccccc3)nn3ccccc23)n1	
380 nM	O=C(O)c1cccc(Cc2c(-c3ccccc3)nn3cc(F)ccc23)n1	
9100 nM	COc1ccn2nc(-c3ccccc3)c(Cc3cccc(C(=O)O)n3)c2c1	
5400 nM	CS(=O)(=O)c1ccc2c(Cc3cccc(C(=O)O)n3)c(-c3ccccc3)nn2c1	
440 nM	N#Cc1ccc2c(Cc3cccc(C(=O)O)n3)c(-c3ccccc3)nn2c1	
290 nM	C=C(C)c1ccc2c(Cc3cccc(C(=O)O)n3)c(-c3ccccc3)nn2c1	
1100 nM	CC(=O)c1ccc2c(Cc3cccc(C(=O)O)n3)c(-c3ccccc3)nn2c1	
16 nM	O=C(O)c1cccc(Cc2c(-c3ccccc3)nn3cc(C(F)(F)F)ccc23)n1	AUC(0-inf) [4]: 4360 ng·h/mL; clearance [5]: 3.84 mL/min/kg; Activity (Rattus norvegicus): Active; C0 [6]: 2430 ng/mL; Vd [7]: 0.473 L/kg

— ChEMBL document CHEMBL4043150, “Discovery of novel pyrazolo[1,5-a]pyridine-based EP1 receptor antagonists by scaffold hopping: Design, synthesis, and structure-activity relationships” (Bioorg Med Chem Lett, 2017)
